Where “and” joins values, the source holds several entries; their conditions need not be identical. Identical values can stand only once. Entries after “also recorded” stand apart in the source; their conditions may differ. Like-named read-outs stand apart in the source and are kept apart here.
Tests used:
[1] = target: T1, Butyrylcholinesterase (EC 3.1.1.8, BChE) from equine serum (eqBChE) (Equus caballus, UniProt P81908)
T1 construct: Butyrylcholinesterase (EC 3.1.1.8, BChE) was from equine serum (eqBChE) (Sigma-Aldrich); purchased Sigma-Aldrich; host or cells: equine serum
T1 sequence (P81908 whole entry): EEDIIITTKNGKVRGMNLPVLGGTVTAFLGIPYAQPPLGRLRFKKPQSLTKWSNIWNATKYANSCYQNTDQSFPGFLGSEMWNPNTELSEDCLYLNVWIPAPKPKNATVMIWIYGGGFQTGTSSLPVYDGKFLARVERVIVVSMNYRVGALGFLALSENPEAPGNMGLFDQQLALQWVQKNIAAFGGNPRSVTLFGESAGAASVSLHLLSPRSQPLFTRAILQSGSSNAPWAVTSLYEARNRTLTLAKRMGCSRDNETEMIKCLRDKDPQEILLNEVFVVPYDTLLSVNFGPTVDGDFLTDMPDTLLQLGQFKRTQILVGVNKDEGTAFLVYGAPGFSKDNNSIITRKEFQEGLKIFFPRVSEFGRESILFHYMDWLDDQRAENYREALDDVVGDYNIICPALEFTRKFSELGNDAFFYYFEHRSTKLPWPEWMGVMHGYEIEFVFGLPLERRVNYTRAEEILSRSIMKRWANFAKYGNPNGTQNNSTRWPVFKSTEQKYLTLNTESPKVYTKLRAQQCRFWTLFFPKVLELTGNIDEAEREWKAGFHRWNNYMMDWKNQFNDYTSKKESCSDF

[2] = target: T1, Butyrylcholinesterase (EC 3.1.1.8, BChE) from equine serum (eqBChE); test: Butyrylcholinesterase inhibition, Ellman's method; format: biochemical; conditions: for IC50: eqBChE, BTCI substrate, pH 8.0, 37 °C, mean ± SD of three independent experiments
Experimental: The effect of the benzofuran derivatives was evaluated on the commercial enzyme from an animal source due to its low cost and remarkable similarity with the human enzyme.
The cholinesterase inhibition activity was executed using Ellman’s method, as previously described with slight modifications.
S-Butyrylthiocholine iodide (BTCI) and 5,5′-dithiobis-(2-nitrobenzoic) acid (DTNB) (Merck/Sigma-Aldrich) were used for the determination of the BChE activity. Butyrylcholinesterase (EC 3.1.1.8, BChE) was from equine serum (eqBChE) (Sigma-Aldrich). We used 96-well plates for analysis, to each well we added 70 μL phosphate-buffered (0.1 M, pH 8.0), 4 μL different concentration of the tested compounds or dimethyl sulfoxide (for control experiment), 6 μL enzyme (final concentration 0.15 U/mL in buffer), and 100 μL DTNB (1.5 mM final). The solution was preincubated for 5 min at 37 °C, then 20 μL BTCI 1.5 mM solution as the substrate was added to the reaction mixture. The absorbance change was measured at 405 nm, with a microplate reader FLUOstar OPTIMA (BMG Labtech, Offenburg, Germany). […] Each experiment was done in triplicate.
The statistical significance of differences was evaluated using one-way analysis of variation (one-way ANOVA), and Tukey’s multiple comparisons. Results were expressed as mean ± standard deviation (SD), and statistically significant differences were evaluated with p < 0.001 as a minimal significance level.

[3] = 2-phenylbenzofurans without spacer; cited from earlier work
[4] = read-out: IC50, inhibitory effect on BChE activity

## Oc1ccc(-c2cc3cc(Br)ccc3o2)cc1 [Compound 9A]
[1]; [3]
  BChE inhibitory activity (in words): no activity; also recorded: negligible inhibitory activity; also recorded: no BChE inhibition
[1]; read-out: IC50, inhibitory effect on BChE activity; 2-phenylbenzofurans given for comparison; cited from earlier work
  IC50: > 100 µM

## Oc1ccc(Cc2cc3cc(Br)ccc3o2)cc1 [Compound 9B, 5-bromo-2-(4-hydroxybenzyl)benzofuran]
[2]; BChE, ratio of IC50 values
  inhibitory activity, fold higher than 14A: about 4 fold
  inhibitory activity, times higher than galantamine: 10 times
[2]; [4]
  IC50: 2.93 µM and 2.9 µM

## Oc1ccc(-c2cc3cccc(Br)c3o2)cc1 [Compound 10A]
[1]; [3]
  BChE inhibitory activity (in words): negligible inhibitory activity

## Oc1ccc(Cc2cc3cccc(Br)c3o2)cc1 [Compound 10B]
[2]; [4]
  IC50: 32.6 ± 2.04 µM

## Oc1ccc(-c2cc3cc(Cl)ccc3o2)cc1 [Compound 11A]
[1]; 2-phenylbenzofurans given for comparison; read-out: IC50, inhibitory effect on BChE activity; cited from earlier work
  IC50: > 100 µM

## Oc1ccc(Cc2cc3cc(Cl)ccc3o2)cc1 [Compound 11B]
[2]; [4]
  IC50: 55.7 ± 0.8 µM

## Oc1ccc(Cc2cc3cccc(Cl)c3o2)cc1 [Compound 12B]
[2]; [4]
  IC50: 43 ± 5.65 µM

## Oc1cccc(-c2cc3cc(Br)ccc3o2)c1 [Compound 13A]
[2]; IC50, inhibitory effect on BChE activity
  IC50: 10.6 ± 1.65 µM

## Oc1cccc(Cc2cc3cc(Br)ccc3o2)c1 [Compound 13B]
[2]; [4]
  IC50: 39.9 ± 4.31 µM

## Oc1cccc(Cc2cc3cccc(Br)c3o2)c1 [Compound 14B]
[2]; [4]
  IC50: 31.37 ± 0.15 µM

## Oc1cccc(Cc2cc3cc(Cl)ccc3o2)c1 [Compound 15B, 5-chloro-2-(3-hydroxybenzyl)benzofuran]
[2]; [4]
  IC50: 27.8 ± 3.07 µM

## Oc1cccc(Cc2cc3cccc(Cl)c3o2)c1 [Compound 16B]
[2]; [4]
  IC50: 61.7 ± 5.9 µM

Source: paper PMC8955773 (Pharmaceuticals, 2022)
